According to US11680056B2, “MK2 inhibitors and uses thereof” (Xinthera, Inc., priority 2021, dated 2023):
Like-named read-outs stand apart in the source and are kept apart here.

What was measured:
p38a/MK2 = p38a/MK2 (Homo sapiens (Human), UniProt P49137+Q16539); test: p38a/MK2 biochemical assay: activation of MK2 by p38, FITC-HSP27 peptide phosphorylation (IMAP FP); settings: 10-point 1:3 dilution, 60 pM active p38a, 1 nM inactive MK2, 10 μM ATP, 2 h incubation
Procedure: (§1) Expression vectors of the recombinant MK2 and PRAK kinases were constructed by cloning of the codon optimized gene sequences of MK2 (Uniprot ID P49137, amino acid fragment F46-H400), or PRAK (Uniprot ID Q81W41, amino acid fragment M1-Q471) into pGEX-4T1 (GE) for over expression of these kinases with N-terminal GST-tag. Protein expression was carried out in E. coli BL21 by growing the hosts in TB medium, induction of protein expression with 0.5 mM IPTG at approximate 0.8 OD600, and incubation of the cultures at 18° C. for 14-20 hours afterwards. The harvested cells were resuspended in […] of Lysis buffer (50 mM Tris-HCl, pH 8.0, 500 mM NaCl, 1 mM DTT, 5% glycerol, and 1 mM PMSF) per gram of wet cell mass and homogenized at 4° C. in a microfluidizer (ATS, Suzhou, China) at 14,000 psi pressure, 3 passes. The cell lysates were clarified by centrifugation and the supernatants containing the GST-fusion proteins were purified by affinity chromatography using GSH-Sepharose (GE) gravity flow columns pre-equilibrated in Buffer A (50 mM Tris-HCl, pH 8.0, 500 mM NaCl, 1 mM DTT, and 5% glycerol). After thorough washing of the columns with Buffer A, the bound GST-proteins were eluted by Buffer B (50 mM Tris, pH 8.0, 500 mM NaCl, 1 mM DTT, 5% glycerol, 10 mM glutathione), followed by size-exclusion purification on Superdex 200 column equilibrated in Buffer A. The purified proteins were concentrated to approximately 1 mg/ml and stored at −80° C.
This study evaluates the inhibitory potency of invention compound on p38/MK2 pathway vs p38/PRAK pathway. More specially the compound concentration (IC50) was determined that inhibited half of the maximal activation of MK2 or PRAK by p38. MK2 activation study was set up without or with a serial of 10-point 1:[…], and PRAK activation study was set up without or with a serial of 10-point 1:3 dilution of invention compound at top dose of 300 μM. The MK2 and PRAK activity were determined by the phosphorylation level of HSP27 peptide conjugated with FITC.
(§2) After 2 h incubation of the reaction mixture with various concentration of invention compound (200 nL), 60 μL 1×IMAP solution Mixture (Molecular Devices, Cat R8127) was added to the reaction mixture and incubated for another half hour. The signal was then read by Synergy™ Neo2 Multi-Mode Microplate Reader with filter setting (Ex/Em=485 nm/FITC FP-P pol 528 nm & FITC FP-S pol 528 nm)
(§3) The signal was then normalized to vehicle control and fitted in Xfit to generate IC50. The selectivity of MK2 over PRAK was calculated by the formular Selectivity=IC50 of PRAK/IC50 of MK2.

p38a/PRAK = p38a/PRAK (Homo sapiens (Human), UniProt Q16539); test: p38a/PRAK biochemical assay: activation of PRAK by p38, FITC-HSP27 peptide phosphorylation (IMAP FP); settings: 10-point 1:3 dilution, top dose 300 μM; 60 pM active p38a, 1 nM inactive PRAK, 10 μM ATP, 2 h incubation; read-out: p38a/PRAK Enzyme pIC50 (converted)
Procedure: as §1
This study evaluates the inhibitory potency of invention compound on p38/MK2 pathway vs p38/PRAK pathway. More specially the compound concentration (IC50) was determined that inhibited half of the maximal activation of MK2 or PRAK by p38. MK2 activation study was set up without or with a serial of 10-point 1:3 dilution of invention compound at top dose of […], and PRAK activation study was set up without or with a serial of 10-point 1:3 dilution of invention compound at top dose of 300 μM. The MK2 and PRAK activity were determined by the phosphorylation level of HSP27 peptide conjugated with FITC.
as §2, §3

[1] = top dose 1 μM, read-out: p38a/MK2 (1 μM) Enzyme pIC50 (converted)
[2] = top dose 10 μM, read-out: p38a/MK2 (10 μM) Enzyme pIC50 (converted)

Sequence of p38a/MK2 (P49137 46-400): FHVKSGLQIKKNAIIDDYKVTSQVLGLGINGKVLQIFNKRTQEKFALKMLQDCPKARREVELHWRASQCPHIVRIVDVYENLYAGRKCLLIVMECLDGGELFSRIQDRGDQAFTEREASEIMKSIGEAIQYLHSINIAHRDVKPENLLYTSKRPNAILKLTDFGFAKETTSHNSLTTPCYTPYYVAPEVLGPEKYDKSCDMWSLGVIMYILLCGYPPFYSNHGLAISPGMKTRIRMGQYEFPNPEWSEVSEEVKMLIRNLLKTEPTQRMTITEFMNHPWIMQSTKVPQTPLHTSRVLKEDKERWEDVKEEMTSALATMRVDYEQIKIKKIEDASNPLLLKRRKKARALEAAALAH
Sequence of p38a/MK2 (Q16539 whole entry, the tested form may be a part): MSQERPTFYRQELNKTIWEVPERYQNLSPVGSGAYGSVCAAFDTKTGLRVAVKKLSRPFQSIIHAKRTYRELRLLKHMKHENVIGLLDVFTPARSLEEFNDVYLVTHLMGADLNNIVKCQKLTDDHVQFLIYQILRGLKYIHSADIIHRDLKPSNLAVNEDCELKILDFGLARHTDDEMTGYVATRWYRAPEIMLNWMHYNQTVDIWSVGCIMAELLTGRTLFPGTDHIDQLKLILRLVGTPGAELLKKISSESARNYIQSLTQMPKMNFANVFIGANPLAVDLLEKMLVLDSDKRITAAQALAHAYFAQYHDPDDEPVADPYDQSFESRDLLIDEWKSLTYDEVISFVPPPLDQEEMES
Sequence of p38a/PRAK (Q16539 whole entry): as the sequence (Q16539 whole entry, the tested form may be a part) above

| IC50 (p38a/MK2; [1]) | IC50 (p38a/PRAK) | IC50 (p38a/MK2; [2]) | Structure (SMILES) |
| --- | --- | --- | --- |
| 0.00316 µM | 2 µM | – | Cc1cnc(-c2ccnc(C3(CO)CC3)n2)cc1-n1c(C)cc(OCc2ncc(F)cc2F)c(Cl)c1=O (single isomer, unassigned) [Example 21B, rel-3-chloro-4-((3,5-difluoropyridin-2-yl)methoxy)-2′-(2-(1-(hydroxymethyl)cyclopropyl)pyrimidin-4-yl)-5′,6-dimethyl-2H-[1,4′-bipyridin]-2-one] |
| – | 15.8 µM | 0.0316 µM | Cc1cc(COc2cc(C)n(-c3cc(-c4ccnc(C(C)(C)O)n4)ncc3C)c(=O)c2Cl)ncc1F (single isomer, unassigned) [Example 22A, rel-3-chloro-4-[(5-fluoro-4-methylpyridin-2-yl)methoxy]-2′-[2-(2-hydroxypropan-2-yl)pyrimidin-4-yl]-5′,6-dimethyl-[1,4′-bipyridin]-2-one] |
| – | > 316 µM | > 10 µM | Cc1cc(COc2cc(C)n(-c3cc(-c4ccnc(C(C)(C)O)n4)ncc3C)c(=O)c2Cl)ncc1F (single isomer, unassigned) [Example 22B, rel-3-chloro-4-[(5-fluoro-4-methylpyridin-2-yl)methoxy]-2′-[2-(2-hydroxypropan-2-yl)pyrimidin-4-yl]-5′,6-dimethyl-[1,4′-bipyridin]-2-one] |
| 0.00316 µM | 12.6 µM | – | Cc1cnc(COc2cc(C)n(-c3cc(-c4ccnc(C(C)(C)O)n4)ncc3C)c(=O)c2Cl)c(F)c1 (single isomer, unassigned) [Example 23A, rel-3-chloro-4-[(3-fluoro-5-methylpyridin-2-yl)methoxy]-2′-[2-(2-hydroxypropan-2-yl)pyrimidin-4-yl]-5′,6-dimethyl-[1,4′-bipyridin]-2-one] |
| – | > 316 µM | > 10 µM | Cc1cnc(COc2cc(C)n(-c3cc(-c4ccnc(C(C)(C)O)n4)ncc3C)c(=O)c2Cl)c(F)c1 (single isomer, unassigned) [Example 23B, rel-3-chloro-4-[(3-fluoro-5-methylpyridin-2-yl)methoxy]-2′-[2-(2-hydroxypropan-2-yl)pyrimidin-4-yl]-5′,6-dimethyl-[1,4′-bipyridin]-2-one] |
| 0.00158 µM | 6.31 µM | – | Cc1cnc(-c2ccc(F)c(C(C)(C)O)n2)cc1-n1c(C)cc(OCc2ncc(F)cc2F)c(Cl)c1=O (single isomer, unassigned) [Example 24A, rel-3-chloro-4-[(3,5-difluoropyridin-2-yl)methoxy]-1-[5′-fluoro-6′-(2-hydroxypropan-2-yl)-5-methyl-[2,2′-bipyridin]-4-yl]-6-methylpyridin-2-one] |
| – | > 316 µM | 1.58 µM | Cc1cnc(-c2ccc(F)c(C(C)(C)O)n2)cc1-n1c(C)cc(OCc2ncc(F)cc2F)c(Cl)c1=O (single isomer, unassigned) [Example 24B, rel-3-chloro-4-[(3,5-difluoropyridin-2-yl)methoxy]-1-[5′-fluoro-6′-(2-hydroxypropan-2-yl)-5-methyl-[2,2′-bipyridin]-4-yl]-6-methylpyridin-2-one] |
| – | 3.16 µM | 0.0316 µM | Cc1cnc(-c2ccn(C(C)(C)CO)n2)cc1-n1c(C)cc(OCc2ncc(F)cc2F)c(Cl)c1=O (single isomer, unassigned) [Example 25A, rel-3-chloro-4-[(3,5-difluoropyridin-2-yl)methoxy]-2′-[1-(1-hydroxy-2-methylpropan-2-yl)pyrazol-3-yl]-5′,6-dimethyl-[1,4′-bipyridin]-2-one] |
| – | > 316 µM | 3.16 µM | Cc1cnc(-c2ccn(C(C)(C)CO)n2)cc1-n1c(C)cc(OCc2ncc(F)cc2F)c(Cl)c1=O (single isomer, unassigned) [Example 25B, rel-3-chloro-4-[(3,5-difluoropyridin-2-yl)methoxy]-2′-[1-(1-hydroxy-2-methylpropan-2-yl)pyrazol-3-yl]-5′,6-dimethyl-[1,4′-bipyridin]-2-one] |
| 0.0126 µM | 2 µM | – | Cc1cnc(-c2ccnc(C3CC(O)C3)n2)cc1-n1c(C)cc(OCc2ncc(F)cc2F)c(Cl)c1=O (single isomer, unassigned) [Example 26A, rel-3-chloro-4-((3,5-difluoropyridin-2-yl)methoxy)-2′-(2-(3-hydroxycyclobutyl)pyrimidin-4-yl)-5′,6-dimethyl-2H-[1,4′-bipyridin]-2-one] |
| – | > 316 µM | 1.58 µM | Cc1cnc(-c2ccnc(C3CC(O)C3)n2)cc1-n1c(C)cc(OCc2ncc(F)cc2F)c(Cl)c1=O (single isomer, unassigned) [Example 26B, rel-3-chloro-4-((3,5-difluoropyridin-2-yl)methoxy)-2′-(2-(3-hydroxycyclobutyl)pyrimidin-4-yl)-5′,6-dimethyl-2H-[1,4′-bipyridin]-2-one] |
| – | 126 µM | 0.0631 µM | Cc1cnc(-c2ccnc(C(C)(C)O)n2)cc1-n1c(C)cc(OCc2cc(C(F)F)ccn2)c(Cl)c1=O (single isomer, unassigned) [Example 27A, rel-3-chloro-4-{[4-(difluoromethyl)pyridin-2-yl]methoxy}-2′-[2-(2-hydroxypropan-2-yl)pyrimidin-4-yl]-5′,6-dimethyl-[1,4′-bipyridin]-2-one] |
| – | > 316 µM | 5.01 µM | Cc1cnc(-c2ccnc(C(C)(C)O)n2)cc1-n1c(C)cc(OCc2cc(C(F)F)ccn2)c(Cl)c1=O (single isomer, unassigned) [Example 27B, rel-3-chloro-4-{[4-(difluoromethyl)pyridin-2-yl]methoxy}-2′-[2-(2-hydroxypropan-2-yl)pyrimidin-4-yl]-5′,6-dimethyl-[1,4′-bipyridin]-2-one] |
| 0.00794 µM | 12.6 µM | – | CCc1cnc(-c2ccnc(C(C)(C)O)n2)cc1-n1c(C)cc(OCc2ncc(F)cc2F)c(Cl)c1=O (single isomer, unassigned) [Example 29A, rel-3-chloro-4-((3,5-difluoropyridin-2-yl)methoxy)-5′-ethyl-2′-(2-(2-hydroxypropan-2-yl)pyrimidin-4-yl)-6-methyl-2H-[1,4′-bipyridin]-2-one] |
| – | > 316 µM | > 10 µM | CCc1cnc(-c2ccnc(C(C)(C)O)n2)cc1-n1c(C)cc(OCc2ncc(F)cc2F)c(Cl)c1=O (single isomer, unassigned) [Example 29B, rel-3-chloro-4-((3,5-difluoropyridin-2-yl)methoxy)-5′-ethyl-2′-(2-(2-hydroxypropan-2-yl)pyrimidin-4-yl)-6-methyl-2H-[1,4′-bipyridin]-2-one] |
| – | 3.16 µM | 2 µM | Cc1cnc(-c2nc(C(C)(C)O)ncc2C2CC2)cc1-n1c(C)cc(OCc2ncc(F)cc2F)c(Cl)c1=O (single isomer, unassigned) [Example 31A, rel-3-chloro-2′-(5-cyclopropyl-2-(2-hydroxypropan-2-yl)pyrimidin-4-yl)-4-((3,5-difluoropyridin-2-yl)methoxy)-5′,6-dimethyl-2H-[1,4′-bipyridin]-2-one] |
| – | > 316 µM | > 10 µM | Cc1cnc(-c2nc(C(C)(C)O)ncc2C2CC2)cc1-n1c(C)cc(OCc2ncc(F)cc2F)c(Cl)c1=O (single isomer, unassigned) [Example 31B, rel-3-chloro-2′-(5-cyclopropyl-2-(2-hydroxypropan-2-yl)pyrimidin-4-yl)-4-((3,5-difluoropyridin-2-yl)methoxy)-5′,6-dimethyl-2H-[1,4′-bipyridin]-2-one] |
| 0.02 µM | 6.31 µM | – | Cc1cnc(-c2ccc3c(n2)C(C)(O)CC3)cc1-n1c(C)cc(OCc2ncc(F)cc2F)c(Cl)c1=O (single isomer, unassigned) [Example 32A] |
